Assay [1] has as its target hADORA1/CHO (hA1 expressing) cells (Homo sapiens (Human), UniProt P30542). As to the kind of experiment: cell-based. The note with it: FLIPR inhibition, 10 μM adenosine, read-out: cAMP & FLIPR IC50 (nM) hA1.
The target of another assay is hA2a/CHO (Homo sapiens (Human), UniProt P29274). As to the kind of experiment: cAMP inhibition assay in hA2a/CHO cells, 10 μM adenosine.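 Further: compounds added to cells 30 min ahead of adenosine, then a further 30 min at 37 °C with adenosine before cAMP detection.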 The format is cell-based. Conditions: read-out: cAMP & FLIPR IC50 (nM) hA2a.
Another assay concerns the target hA2b/CHO (Homo sapiens (Human), UniProt P29275). As to the kind of experiment: cAMP inhibition assay in hA2b/CHO cells, 10 μM adenosine.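 Further: cells exposed to compound 30 min at 37 °C, then stimulated with adenosine a further 30 min, cAMP read after 60 min at room temperature.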 The format is cell-based. The note with it: read-out: cAMP & FLIPR IC50 (nM) hA2b.
The next assay concerns the target hA3/CHO (Homo sapiens (Human), UniProt P0DMS8). The experiment in a line: cell-based. As for the experimental part: hA2a/CHO, hA2b/CHO, hA3/CHO and mA2a/CHO (Genscript) were plated at 5×10^3 cells/well into 384-well polystyrene plates at the day of experiment. Compounds were pre-incubated with cells for 30 min at 37° C., 5% CO2. Then 10 μM adenosine was added to the cells and incubated for 30 min at 37° C., 5% CO2. Detection reagent (CISBIO) was added and the plates were incubated for 60 min at room temperature. The signal was captured by Envision.

The target of the next assay is mA2a/CHO (Mus musculus (Mouse), UniProt Q60613). As to the kind of experiment: cAMP inhibition assay in mA2a/CHO cells, 10 μM adenosine.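 Further: compounds preincubated 30 min at 37 °C before the adenosine challenge, then 30 min further stimulation, readout after 60 min detection reagent incubation at room temperature in 384-well plates.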 The format is cell-based. Conditions: read-out: cAMP & FLIPR IC50 (nM) mA2a.
mA2a/CHO, sequence (Q60613 whole entry): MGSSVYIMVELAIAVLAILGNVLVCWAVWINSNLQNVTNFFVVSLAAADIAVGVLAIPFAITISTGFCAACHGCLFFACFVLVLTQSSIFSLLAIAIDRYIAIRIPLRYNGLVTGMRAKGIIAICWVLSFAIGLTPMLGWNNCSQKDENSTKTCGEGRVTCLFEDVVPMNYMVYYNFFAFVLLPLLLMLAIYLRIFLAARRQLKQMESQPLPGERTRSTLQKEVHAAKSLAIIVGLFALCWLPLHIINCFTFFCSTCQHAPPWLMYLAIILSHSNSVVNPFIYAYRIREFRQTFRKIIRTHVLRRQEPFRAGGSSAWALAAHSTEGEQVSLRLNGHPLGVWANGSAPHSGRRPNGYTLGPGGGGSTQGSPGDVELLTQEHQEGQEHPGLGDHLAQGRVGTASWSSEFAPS

hA2a/CHO, sequence (P29274 whole entry): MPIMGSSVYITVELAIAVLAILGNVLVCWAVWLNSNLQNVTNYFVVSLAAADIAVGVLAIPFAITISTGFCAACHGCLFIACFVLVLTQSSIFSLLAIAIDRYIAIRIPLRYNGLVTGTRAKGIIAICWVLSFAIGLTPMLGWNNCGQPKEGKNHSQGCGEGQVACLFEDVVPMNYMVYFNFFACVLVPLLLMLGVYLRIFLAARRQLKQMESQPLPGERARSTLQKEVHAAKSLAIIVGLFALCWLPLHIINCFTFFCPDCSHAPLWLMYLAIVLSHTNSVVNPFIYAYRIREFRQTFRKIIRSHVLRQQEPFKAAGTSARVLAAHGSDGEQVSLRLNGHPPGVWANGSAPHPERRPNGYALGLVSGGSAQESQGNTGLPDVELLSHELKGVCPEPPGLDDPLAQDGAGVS
hADORA1/CHO (hA1 expressing) cells, sequence (P30542 whole entry): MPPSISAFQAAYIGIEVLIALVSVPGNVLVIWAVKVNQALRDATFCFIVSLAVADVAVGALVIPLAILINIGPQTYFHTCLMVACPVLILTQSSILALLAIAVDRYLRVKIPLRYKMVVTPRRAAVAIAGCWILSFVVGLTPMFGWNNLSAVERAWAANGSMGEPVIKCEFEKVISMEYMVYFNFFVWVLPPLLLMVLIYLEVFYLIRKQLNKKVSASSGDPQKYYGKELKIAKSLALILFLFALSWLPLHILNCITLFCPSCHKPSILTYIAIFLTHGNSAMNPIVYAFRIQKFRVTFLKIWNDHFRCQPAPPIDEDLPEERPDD
hA2b/CHO, sequence (P29275 whole entry): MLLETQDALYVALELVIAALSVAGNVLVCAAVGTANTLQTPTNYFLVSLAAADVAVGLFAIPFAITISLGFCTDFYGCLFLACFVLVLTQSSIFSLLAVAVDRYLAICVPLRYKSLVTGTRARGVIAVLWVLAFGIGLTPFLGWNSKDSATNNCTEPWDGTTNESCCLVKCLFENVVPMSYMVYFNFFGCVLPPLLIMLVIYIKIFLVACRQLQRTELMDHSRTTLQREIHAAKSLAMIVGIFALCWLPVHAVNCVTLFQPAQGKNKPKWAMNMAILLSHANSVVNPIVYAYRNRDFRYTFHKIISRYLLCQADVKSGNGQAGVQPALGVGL
hA3/CHO, sequence (P0DMS8 whole entry): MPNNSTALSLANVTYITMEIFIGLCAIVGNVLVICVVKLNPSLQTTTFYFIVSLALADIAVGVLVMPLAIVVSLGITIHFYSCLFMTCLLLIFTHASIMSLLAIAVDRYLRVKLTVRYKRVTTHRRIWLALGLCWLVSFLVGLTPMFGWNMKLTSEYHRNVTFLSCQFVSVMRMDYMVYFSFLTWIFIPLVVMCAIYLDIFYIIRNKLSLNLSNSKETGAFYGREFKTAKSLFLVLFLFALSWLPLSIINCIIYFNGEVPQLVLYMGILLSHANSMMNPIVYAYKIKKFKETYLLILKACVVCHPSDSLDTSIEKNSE

Broadly, the IC50 is the concentration needed to halve the response being measured. `CN(C)c1ccc(F)c(CNC(=O)c2nc(-c3ccc(=O)n(C)c3)c(-c3ncco3)nc2N)c1` [Example 27, 3-amino-N-(5-(dimethylamino)-2-fluorobenzyl)-6-(1-methyl-6-oxo-1,6-dihydropyridin-3-yl)-5-(oxazol-2-yl)pyrazine-2-carboxamide]: the IC50 was 1770 nM in assay [1]; 60 nM on hA2a/CHO; not below 10000 nM at hA2b/CHO; not below 10000 nM against hA3/CHO; 177 nM at mA2a/CHO.

For the molecule `Cn1cc(-c2nc(C(=O)NCc3ncccc3C(F)(F)F)c(N)nc2-c2ncco2)ccc1=O` [Example 11, 3-amino-6-(1-methyl-6-oxo-1,6-dihydropyridin-3-yl)-5-(oxazol-2-yl)-N-((3-(trifluoromethyl)pyridin-2-yl)methyl)pyrazine-2-carboxamide], the IC50 in assay [1] was 4490 nM; at hA2a/CHO, 89 nM; at hA2b/CHO it was 1010 nM; against hA3/CHO it was not below 10000 nM; at mA2a/CHO, 87 nM.

Take `CC(NC(=O)c1nc(-c2ccc(=O)n(C)c2)c(-c2ncco2)nc1N)c1c(F)cccc1F` (stereo not shown) [Example 20, 3-amino-N-(1-(2,6-difluorophenyl)ethyl)-6-(1-methyl-6-oxo-1,6-dihydropyridin-3-yl)-5-(oxazol-2-yl) pyrazine-2-carboxamide]: the IC50 was 6610 nM in assay [1]; 41 nM at hA2a/CHO; 3600 nM on hA2b/CHO; not below 10000 nM on hA3/CHO; 170 nM on mA2a/CHO.

Take `Nc1nc(-c2ncco2)c(-c2ccc3nccn3c2)nc1C(=O)NCc1c(F)cccc1F` [Example 32, 3-amino-N-[(2,6-difluorophenyl)methyl]-6-[imidazo[1,2-a]pyridin-6-yl]-5-(1,3-oxazol-2-yl)pyrazine-2-carboxamide]: the IC50 was 494 nM in assay [1]; 0.2 nM on hA2a/CHO; 3 nM on hA2b/CHO; not below 10000 nM at hA3/CHO; 2 nM at mA2a/CHO.

For the molecule `Cc1cc(-c2nc(C(=O)NCc3cccc(N(C)C)n3)c(N)nc2-c2ccc(F)cc2)ccn1` [Example 12, 3-amino-N-((6-(dimethylamino)pyridin-2-yl)methyl)-5-(4-fluorophenyl)-6-(2-methylpyridin-4-yl)pyrazine-2-carboxamide], the IC50 in assay [1] is 414 nM; on hA2a/CHO, 36 nM; at hA2b/CHO, 9030 nM; against hA3/CHO, 6940 nM; on mA2a/CHO, 678 nM.

For `Cc1cc(-c2nc(C(=O)NCc3c(F)cccc3F)c(N)nc2-c2ncco2)ccn1` [Example 10, 3-amino-N-(2,6-difluorobenzyl)-6-(2-methylpyridin-4-yl)-5-(oxazol-2-yl) pyrazine-2-carboxamide], the IC50 in assay [1] is 58 nM; at hA2a/CHO, 17 nM; on hA2b/CHO it was 17 nM; at hA3/CHO, not below 10000 nM; on mA2a/CHO, 41 nM.

For `CN(C)c1ccnc(CNC(=O)c2nc(-c3ccc(=O)n(C)c3)c(-c3ncco3)nc2N)n1` [Example 25, 3-amino-N-((4-(dimethylamino)pyrimidin-2-yl)methyl)-6-(1-methyl-6-oxo-1,6-dihydropyridin-3-yl)-5-(oxazol-2-yl)pyrazine-2-carboxamide], the IC50 is 3300 nM in assay [1]; 125 nM at hA2a/CHO; not below 10000 nM at hA2b/CHO; not below 10000 nM on hA3/CHO; 242 nM on mA2a/CHO.

Turning to `CN(C)c1cccc(CNC(=O)c2nc(-c3ccc(=O)n(C)c3)c(-c3ccc(F)cc3)nc2N)n1` [Example 13, 3-amino-N-[[6-(dimethylamino)pyridin-2-yl]methyl]-5-(4-fluorophenyl)-6-(1-methyl-6-oxo-1,6-dihydropyridin-3-yl)pyrazine-2-carboxamide], the IC50 in assay [1] was 72 nM; on hA2a/CHO, 6.1 nM; on hA2b/CHO, 4640 nM; against hA3/CHO, not below 10000 nM; at mA2a/CHO, 51 nM.

The record behind these values is patent US10898481B2 (priority 2018, dated 2021).
